From ChEMBL document CHEMBL5715936, “Selective Itk inhibitors block T-cell activation and murine lung inflammation” (Biochemistry, 2004) come the findings set out here.

Calls of active or inactive are those of the source. The calls are words filed in the database; no cut-off is given here. Bounds are passed on as bounds.

The target in assay [1] is T1, Tyrosine-protein kinase Tec (Homo sapiens, UniProt P42680).
T1 sequence (P42680 whole entry): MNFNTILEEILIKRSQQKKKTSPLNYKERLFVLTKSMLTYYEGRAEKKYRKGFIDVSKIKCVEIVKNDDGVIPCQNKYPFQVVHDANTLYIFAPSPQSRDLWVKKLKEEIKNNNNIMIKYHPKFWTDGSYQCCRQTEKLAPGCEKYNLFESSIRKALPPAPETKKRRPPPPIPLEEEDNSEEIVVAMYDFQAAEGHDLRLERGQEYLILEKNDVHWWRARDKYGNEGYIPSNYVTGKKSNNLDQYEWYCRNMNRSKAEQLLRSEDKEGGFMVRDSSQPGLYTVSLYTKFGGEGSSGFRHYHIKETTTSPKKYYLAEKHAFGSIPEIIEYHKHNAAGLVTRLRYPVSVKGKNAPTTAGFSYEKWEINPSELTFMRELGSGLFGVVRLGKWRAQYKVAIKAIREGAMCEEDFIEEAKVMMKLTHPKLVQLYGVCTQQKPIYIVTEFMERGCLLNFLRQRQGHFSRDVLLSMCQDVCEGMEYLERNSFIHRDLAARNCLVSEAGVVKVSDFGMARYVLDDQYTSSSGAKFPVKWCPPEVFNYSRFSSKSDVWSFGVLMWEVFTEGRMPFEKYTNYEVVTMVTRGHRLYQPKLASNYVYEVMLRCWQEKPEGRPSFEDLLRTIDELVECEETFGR
Description: Inhibition of Tec (unknown origin) using GST-SLP-76 as peptide substrate incubated for 10 mins in presence of [gamma-33P]ATP by scintillation counter assay.

The target of assay [2] is Epidermal growth factor receptor (Homo sapiens, UniProt P00533). Description: Inhibition of EGFR (unknown origin) using GST-SLP-76 as peptide substrate incubated for 10 mins in presence of [gamma-33P]ATP by scintillation counter assay.
Epidermal growth factor receptor, sequence (P00533 whole entry): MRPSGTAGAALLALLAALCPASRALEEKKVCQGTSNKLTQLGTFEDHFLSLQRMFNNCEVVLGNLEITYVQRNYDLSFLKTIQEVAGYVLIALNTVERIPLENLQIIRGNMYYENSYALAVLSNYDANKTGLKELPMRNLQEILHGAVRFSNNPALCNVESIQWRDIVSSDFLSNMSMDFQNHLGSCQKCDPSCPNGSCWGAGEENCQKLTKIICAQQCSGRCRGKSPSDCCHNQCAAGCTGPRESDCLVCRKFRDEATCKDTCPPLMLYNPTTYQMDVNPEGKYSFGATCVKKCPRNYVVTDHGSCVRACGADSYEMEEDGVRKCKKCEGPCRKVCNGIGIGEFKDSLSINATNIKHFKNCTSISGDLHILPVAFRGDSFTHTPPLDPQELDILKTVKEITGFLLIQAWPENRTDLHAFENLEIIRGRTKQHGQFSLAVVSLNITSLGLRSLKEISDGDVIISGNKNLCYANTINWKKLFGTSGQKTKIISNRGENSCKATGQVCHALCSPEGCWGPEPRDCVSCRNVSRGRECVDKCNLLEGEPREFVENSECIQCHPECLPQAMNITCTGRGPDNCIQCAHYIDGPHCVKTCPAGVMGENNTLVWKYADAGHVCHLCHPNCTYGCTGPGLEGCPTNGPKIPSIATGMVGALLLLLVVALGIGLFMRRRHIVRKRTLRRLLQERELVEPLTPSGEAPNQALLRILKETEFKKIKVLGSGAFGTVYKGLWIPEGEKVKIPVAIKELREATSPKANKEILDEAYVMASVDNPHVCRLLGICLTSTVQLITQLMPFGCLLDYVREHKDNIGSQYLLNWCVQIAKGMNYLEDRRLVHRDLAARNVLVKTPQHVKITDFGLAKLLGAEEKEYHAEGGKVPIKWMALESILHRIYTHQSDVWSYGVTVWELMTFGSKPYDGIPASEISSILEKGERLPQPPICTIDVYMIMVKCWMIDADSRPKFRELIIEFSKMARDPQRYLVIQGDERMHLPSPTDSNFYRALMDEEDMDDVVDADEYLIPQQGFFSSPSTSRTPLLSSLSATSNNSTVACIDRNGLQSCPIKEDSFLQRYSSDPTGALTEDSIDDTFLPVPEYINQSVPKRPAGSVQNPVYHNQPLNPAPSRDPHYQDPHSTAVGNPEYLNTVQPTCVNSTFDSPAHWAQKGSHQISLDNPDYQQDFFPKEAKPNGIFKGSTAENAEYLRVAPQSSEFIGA
In another assay the target is Protein kinase C (PKC). Description: Inhibition of PKC (unknown origin) using GST-SLP-76 as peptide substrate incubated for 10 mins in presence of [gamma-33P]ATP by scintillation counter assay. The format is protein assay, Homo sapiens.
Assay [3] addresses T2, Tyrosine-protein kinase ITK/TSK (Homo sapiens) (UniProt Q08881).
T2 sequence (whole entry): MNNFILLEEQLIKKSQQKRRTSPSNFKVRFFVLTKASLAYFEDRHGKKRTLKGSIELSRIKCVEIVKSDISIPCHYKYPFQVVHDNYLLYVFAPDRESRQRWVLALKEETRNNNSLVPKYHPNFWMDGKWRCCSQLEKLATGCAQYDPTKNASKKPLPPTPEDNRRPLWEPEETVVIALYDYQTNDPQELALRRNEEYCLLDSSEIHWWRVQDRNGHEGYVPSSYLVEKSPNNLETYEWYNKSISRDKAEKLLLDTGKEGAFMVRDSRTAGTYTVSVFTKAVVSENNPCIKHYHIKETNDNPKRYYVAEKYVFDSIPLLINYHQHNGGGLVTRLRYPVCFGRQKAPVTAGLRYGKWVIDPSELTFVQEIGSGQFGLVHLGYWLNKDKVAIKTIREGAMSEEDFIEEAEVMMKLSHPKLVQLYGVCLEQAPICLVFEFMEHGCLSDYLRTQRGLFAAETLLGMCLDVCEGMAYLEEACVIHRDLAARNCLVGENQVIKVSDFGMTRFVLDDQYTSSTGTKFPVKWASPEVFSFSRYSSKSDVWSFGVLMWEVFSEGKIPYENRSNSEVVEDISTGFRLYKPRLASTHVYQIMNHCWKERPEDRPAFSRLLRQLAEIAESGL
Briefly: Inhibition of Itk in human Jurkat T cells assessed as inhibition of IL-2 secretion incubated for 16 hrs in presence of anti-CD3 antibody G19-4 by ELISA analysis. The format is cell-based.

Assay [4] has as its target T2, Tyrosine-protein kinase ITK/TSK (Homo sapiens). Description: Inhibition of Itk in human PBMC cells assessed as inhibition of IL-2 secretion incubated for 16 hrs in presence of anti-CD3 antibody G19-4 by ELISA analysis. It is filed as cell-based.
The target in assay [5] is Tyrosine-protein kinase ITK/TSK (Mus musculus) (UniProt Q03526). Description: (§1) Inhibition of Itk in mouse EL4 cells assessed as inhibition of IL-2 secretion incubated for 16 hrs in presence of anti-CD3 antibody G19-4 by ELISA analysis. It is filed as cell-based.
Tyrosine-protein kinase ITK/TSK (Mus musculus), sequence (Q03526 whole entry): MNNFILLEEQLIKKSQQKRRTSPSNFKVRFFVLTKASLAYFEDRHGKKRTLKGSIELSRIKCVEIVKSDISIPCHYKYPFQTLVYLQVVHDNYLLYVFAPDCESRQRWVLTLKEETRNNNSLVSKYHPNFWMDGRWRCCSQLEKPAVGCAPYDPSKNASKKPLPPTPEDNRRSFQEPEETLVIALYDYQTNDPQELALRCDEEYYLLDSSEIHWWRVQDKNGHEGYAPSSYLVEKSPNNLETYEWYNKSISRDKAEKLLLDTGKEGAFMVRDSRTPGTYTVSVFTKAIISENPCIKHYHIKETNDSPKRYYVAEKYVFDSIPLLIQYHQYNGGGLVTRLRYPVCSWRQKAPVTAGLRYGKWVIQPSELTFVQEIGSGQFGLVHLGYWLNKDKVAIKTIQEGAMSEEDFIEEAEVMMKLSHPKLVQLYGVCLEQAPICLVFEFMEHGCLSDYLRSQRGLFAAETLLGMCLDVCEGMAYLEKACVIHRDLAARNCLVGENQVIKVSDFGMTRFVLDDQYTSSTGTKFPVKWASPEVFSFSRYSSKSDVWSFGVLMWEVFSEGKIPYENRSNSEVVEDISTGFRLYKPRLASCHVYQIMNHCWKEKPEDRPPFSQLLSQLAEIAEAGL
In assay [6] the target is Tyrosine-protein kinase ITK/TSK (Mus musculus, UniProt Q03526). The assay is described as §1. It is filed as cell-based.
Tyrosine-protein kinase ITK/TSK, sequence (Q03526 whole entry): as above
Assay [7] concerns Mus musculus. Briefly: In vivo inhibition of IL-2 production in Balb/c mouse serum administered for 15 mins in presence of anti-CD3 antibody by ELISA analysis. The format is functional, organism-based. The settings on record: dose 50-100 mg/kg, route sc.
Assay [8] deals with Mus musculus. Description: In vivo inhibition of IL-2 production in Balb/c mouse serum at >=50 mg/kg, sc administered for 15 mins in presence of anti-CD3 antibody by ELISA analysis. The format is functional, organism-based.
Assay [9] addresses Cyclin-dependent kinase 2 (Homo sapiens, UniProt P24941). Description: Inhibition of Cdk2 (unknown origin) using GST-SLP-76 as peptide substrate incubated for 10 mins in presence of [gamma-33P]ATP by scintillation counter assay.
In assay [10] the test system is Mus musculus. Description: Anti-inflammatory activity against ovalbumin induced Balb/c mouse bronchoalveolar lavage assessed as reduction in total cell infiltration administered twice daily for 3 days by microscopic analysis. It is filed as functional, organism-based. The settings on record: dose 5-25 mg/kg, route sc, time 3.0 day.
Assay [11] concerns Mus musculus. Briefly: Anti-inflammatory activity against ovalbumin induced Balb/c mouse bronchoalveolar lavage assessed as reduction in eosinophil infiltration administered twice daily for 3 days by microscopic analysis. To be noted: dose 5-25 mg/kg, route sc, time 3.0 day. The format is functional, organism-based.

Turning to `CC(=O)N1CCN(C(=O)c2cc(CSc3cnc(NC(=O)c4ccc(CNC(C)C(C)(C)C)cc4)s3)cc(C)c2C)CC1` (stereo not drawn), the IC50 in assay [1] is above 50 µM; in assay [2], above 50 µM; on Protein kinase C (PKC), 21 µM; in [6], 0.25 µM. In addition, the inhibition entry (in assay [3]; in assay [4]; in assay [5]; with Mus musculus [7]) was “Dose-Dependent Effect” in each case. In addition, in the assay with Mus musculus [8], the inhibition result is “Active”.

Regarding `COc1cc(C)c(Sc2cnc(NC(=O)c3ccc(CNC(C)C(C)(C)C)cc3)s2)cc1C(=O)N1CCN(C(C)=O)CC1` (stereo not drawn), the IC50 worked out at 17 µM in assay [1] and 29 µM in assay [9]. Besides, the Activity entry in the assay on Mus musculus [10] and in the assay on Mus musculus [11] was “Dose-Dependent Effect” each time.
